The text below walks through data of US11572402B2, “Method for promoting diversification of antibody variable region” (Chiome Bioscience Inc., priority 2017, dated 2023).

SMILES strings stand for the structures.

The test system of the assay is BMAA4-2 cell line. Briefly: Sequence change analysis of antibody variable regions according to NGS (NUS, SBL). The format is cell-based, chicken. As to conditions: BMAA4-2 cells, versus negative control sample. As to the method: A frozen stock of the BMAA4-2 cell line (3.0×10^6 cells) was awaken with 10 mL of CS(−) medium, using a 25 cm^2 Flask, and the cells were then cultured in a CO2 incubator (39.5° C., 5% CO2). On the following day, 2 mL each of a CS(−) medium, to which each drug had been added, was added into each well of a 12-well dish (Nunc, 150628), and the cells were then seeded thereon to a cell density of 6.0×10^4 cells/mL (wherein the cell concentration and the survival rate were measured using CASY cell counter). After individual samples had been cultured for 2 days, the samples were subcultured under the same conditions to result in a cell density of 1.0×10^4 cells/mL. After completion of the culture for 3 days, individual samples were subcultured in a 25 cm^2 Flask to result in a cell density of 6.0×10^4 cells/mL with respect to 10 mL of the medium under the same conditions. After completion of the culture for 2 days (Day 7 of the culture), individual samples (in each amount of 2.0×10^6 cells) were recovered in a 1.5-mL tube, and thereafter, a supernatant was removed by centrifugation at 1,000×g for 5 min. The residue was re-suspended in 1 mL of D-PBS(−) (Nacalai Tesque, 14249-24), and a supernatant was then removed by centrifugation at 1,000×g for 5 min. The residue was preserved at −80° C. Moreover, individual samples from the remaining cells were subcultured in a 12-well dish to result in a cell density of 6.0×10^4 cells/mL with respect to 2 mL of the medium under the same conditions. After completion of the culture for 2 days, individual samples were subcultured under the same conditions to result in a cell density of 1.0×10^4 cells/mL. After completion of the culture for 3 days, individual samples were subcultured in a 25 cm^2 Flask to result in a cell density of 6.0×10^4 cells/mL with respect to 10 mL of the medium under the same conditions. After completion of the culture for 2 days (Day 14 of the culture), individual samples (in each amount of 2.0×10^6 cells) were recovered in a 1.5-mL tube, and thereafter, a supernatant was removed by centrifugation at 1,000×g for 5 min. The residue was re-suspended in 1 mL of D-PBS(−), and a supernatant was then removed by centrifugation at 1,000×g for 5 min. The residue was preserved at −80° C.
A frozen stock of the BMAA4-2 cell line (3.0×10^6 cells) was awaken with 10 mL of CS(−) medium, using a 25 cm^2 Flask, and the cells were then cultured in a CO2 incubator (39.5° C., 5% CO2). On the following day, 1 mL each of a CS(−) medium, to which each drug had been added, was added into each well of a 24-well dish, and the cells were then seeded thereon to a cell density of 3.0×10^5 cells/mL (wherein the cell concentration and the survival rate were measured using CASY cell counter). […]

Turning to `Cc1nc(NC(=O)N2CCC[C@H]2C(N)=O)sc1-c1csc(C(C)(C)C)n1` [A66], for the setting “heavy chain”, the “NUS (number of unique sequences), antibody heavy chain variable region amino acid sequences” value is listed as “higher values than the negative control sample” and the “SBL (sum of branch length), antibody heavy chain variable region amino acid sequences” value is recorded as “higher values than the negative control sample”. Where the note is “light chain”, the “NUS (number of unique sequences), antibody light chain variable region amino acid sequences” value is “higher values than the negative control sample” and the “SBL (sum of branch length), antibody light chain variable region amino acid sequences” value is “higher values than the negative control sample”.
